Assay results published in ChEMBL document CHEMBL1151144, “Annonaceous acetogenins: a review” (J Nat Prod, 1990).
≈ marks a conversion by molar mass, not a printed value.

Key:
A549 = assay: Cytotoxicity against human A549 cells; format: functional; details: for EC50: Homo sapiens, A549, read-out: ED50 (the source's name)
HT-29 = assay: Cytotoxicity against human HT-29 cells; format: functional; details: for EC50: Homo sapiens, HT-29, read-out: ED50 (the source's name)
[1] = Cytotoxicity against mouse 9PS cells; format: functional; details: for EC50: Mus musculus, read-out: ED50 (the source's name)
[2] = (§1) In vivo antitumor activity against mouse 3PS cells at 0.95 mg/kg relative to control; format: functional
[3] = Antimitotic activity in rat 9ASK cells assessed as reversal of astrocyte formation at 100 ug/mL; format: functional
Calliphora vicina [4] = assay: Pesticidal activity against Blowfly larvae assessed as mortality at 10000 ppm; format: functional
Plasmodium falciparum [5] = assay: Antiplasmodial activity against chloroquine-sensitive Plasmodium falciparum W2; format: functional, organism-based
[6] = Antimitotic activity in rat 9ASK cells assessed as reversal of astrocyte formation; format: functional
Aedes aegypti = assay: Pesticidal activity against Aedes aegypti larvae assessed as mortality at 10 ppm; format: functional
[7] = system: Agrobacterium tumefaciens; assay: Antitumor activity assessed as inhibition of Agrobacterium tumefaciens-induced tumor formation by potato disk assay; format: functional
Plasmodium falciparum [8] = assay: Antiplasmodial activity against chloroquine-sensitive Plasmodium falciparum D6; format: functional, organism-based
[9] = as §1; format: functional; remark: listed apart in the source
Calliphora vicina [10] = assay: Pesticidal activity against Blowfly larvae assessed as mortality at 1% drug concentration; format: functional
Artemia = assay: Toxicity against brine shrimp; format: organism-based; details: in vivo
[11] = Cytotoxicity against human 9KB cells; format: functional; details: for EC50: Homo sapiens, 9KB, read-out: ED50 (the source's name)
L1210 [12] = assay: In vivo antitumor activity against mouse L1210 cells at 0.4 mg/kg relative to control; format: functional
MCF7 = assay: Cytotoxicity against human MCF7 cells; format: functional; details: for EC50: Homo sapiens, MCF7, read-out: ED50 (the source's name)
[13] = Antimitotic activity in rat 9ASK cells assessed as reversal of astrocyte formation at 10 ug/mL; format: functional
[14] = In vivo antitumor activity against mouse 3PS cells at 0.25 mg/kg relative to control; format: functional
L1210 [15] = assay: Cytotoxicity against mouse L1210 cells; format: functional; details: read-out: ED50 (the source's name)
[16] = In vivo antitumor activity against mouse 3PS cells at 1.4 mg/kg relative to control; format: functional

CCCCCCCCCCCC[C@@H](O)[C@H]1CC[C@H]([C@H](O)CCCCC(=O)CCCCC[C@@H](O)CC2=C[C@H](C)OC2=O)O1 [ANNONACINONE] showed an EC50 (A549) of 0.1 µg/mL (≈ 0.168 µM), an EC50 (HT-29) of 1 µg/mL (≈ 1.68 µM) and an ED50 [1] of 1 ×10⁻⁶ ug/ml.

For CCCCCCCCCCCC[C@@H](O)[C@H]1CC[C@H]([C@H](O)CCCC[C@H](O)CCCCC[C@@H](O)CC2=CC(C)OC2=O)O1 (stereo not given in full) [ANNONACIN], the T/C [2] was 124%, the EC50 (A549) was 0.001 µg/mL (≈ 0.00168 µM) and the Activity [3] was 15%. It also gave an EC50 (HT-29) of 3 µg/mL (≈ 5.03 µM), an Activity (Calliphora vicina [4]) of 100% and an IC50 (Plasmodium falciparum [5]) of 1.51 µg/mL (≈ 2.53 µM). The IC90 (Plasmodium falciparum [5]) was 74.7 µg/mL (≈ 125 µM), the Activity [6] was 51% and the Activity (Aedes aegypti) was 70%. For the same compound, the ED50 [1] was 1 ×10⁻⁵ ug/ml, the “inhibition (INH)” value [7] was 72% and the IC50 (Plasmodium falciparum [8]) was 1.3 µg/mL (≈ 2.18 µM). For the same compound, the IC90 (Plasmodium falciparum [8]) was 12.4 µg/mL (≈ 20.9 µM), the T/C [9] was 124% and the Activity (Calliphora vicina [10]) was 100%. It also gave an LC50 (Artemia) of 3.3 ppm and an EC50 [11] of 0.001 µg/mL (≈ 0.00168 µM).

With CCCCCCCCCC[C@H](O)[C@H]1CC[C@H]([C@H]2CC[C@H]([C@H](O)CCCCCCCCCC[C@@H]3CC(CC(C)=O)C(=O)O3)O2)O1 (stereo not given in full) [BULLATACINONE] the “inhibition (INH)” value [7] was 15%, the T/C (L1210 [12]) was 144% and the LC50 (Artemia) was 0.003 ppm.

For CCCCCCCCCC[C@@H](OC(C)=O)[C@H]1CC[C@H]([C@@H](CC[C@@H](OC(C)=O)[C@@H]2CCC(CCCCCCC[C@@H](CC3=C[C@@H](C)OC3=O)OC(C)=O)O2)OC(C)=O)O1 (stereo not given in full) [BULLATALICIN TETRAACETATE], the EC50 (MCF7) was under 0.001 µg/mL, the EC50 (A549) was under 0.001 µg/mL and the EC50 (HT-29) was 1.35 µg/mL (≈ 1.67 µM).

For CCCCCCCCCC[C@H](O)[C@H]1CC[C@H]([C@H](O)CC[C@H](O)[C@@H]2CC[C@@H](CCCCCCC[C@@H](O)CC3=C[C@H](C)OC3=O)O2)O1 [BULLATALICIN], the EC50 (MCF7) was 2.34 µg/mL (≈ 3.66 µM), the ED50 (A549) was 2.34 ×10⁻⁷ ug/ml and the ED50 (HT-29) was 8.8 ×10⁻⁶ ug/ml. The “inhibition (INH)” value [7] was 63%, the LC50 (Artemia) was 0.154 ppm and the EC50 [11] was over 10 µg/mL.

CCCC(O)CCC(O)CCC(O)C1CCC(C2CCC(C(O)CCCCCCCCCCCCCC3=CC(C)OC3=O)O2)O1 (stereo not given) [CHERIMOLINE] gave an EC50 (A549) of 0.001 µg/mL (≈ 0.00157 µM), an EC50 (HT-29) of over 0.001 µg/mL and an EC50 [1] of under 0.01 µg/mL. It also gave an LC50 (Artemia) of 1.24 ppm and an ED50 [11] of 6 ×10⁻¹² ug/ml.

For CCCC(O)CCC(O)CCC(O)C1CCC(C2CCC(C(O)CCCCCCCCCCCCCC3CC(C)OC3=O)O2)O1 (stereo not given) [DIHYDROCHERIMOLINE], the EC50 (A549) was 0.001 µg/mL (≈ 0.00156 µM), the EC50 (HT-29) was 0.001 µg/mL (≈ 0.00156 µM) and the EC50 [1] was under 0.01 µg/mL. It also gave an LC50 (Artemia) of 4.02 ppm and an ED50 [11] of 2 ×10⁻⁸ ug/ml.

In the case of CCCCCCCCCCCC[C@@H](O)[C@H]1CC[C@H]([C@H](O)CC[C@H](O)[C@@H]2CC[C@@H](CCCCC[C@@H](O)CC3=C[C@H](C)OC3=O)O2)O1 [GIGANTECIN], the ED50 (MCF7) is reported as 4.11 ×10⁻⁹ ug/ml, the ED50 (A549) is reported as 2.19 ×10⁻⁷ ug/ml and the ED50 (HT-29) is reported as 2.68 ×10⁻⁴ ug/ml. For the same compound, the Activity [13] was 31%, the ED50 [1] was under 1 ×10⁻⁵ ug/ml and the “inhibition (INH)” value [7] was 83%. For the same compound, the LC50 (Artemia) was 222 ppm and the ED50 [11] was under 1 ×10⁻⁵ ug/ml.

With CCCCCCCCCCCCCC[C@@H](O)[C@H]1CC[C@H]([C@H](O)CC[C@H](O)CCCCC[C@@H](O)CC2=C[C@H](C)OC2=O)O1 [GONIOTHALAMICIN] the Activity (Calliphora vicina [4]) was 100%, the IC50 (Plasmodium falciparum [5]) was 1.59 µg/mL (≈ 2.66 µM) and the IC90 (Plasmodium falciparum [5]) was 23.6 µg/mL (≈ 39.6 µM). The Activity (Aedes aegypti) was 100%, the EC50 [1] was under 0.1 µg/mL and the “inhibition (INH)” value [7] was 68%. For the same compound, the IC50 (Plasmodium falciparum [8]) was 1.08 µg/mL (≈ 1.82 µM), the IC90 (Plasmodium falciparum [8]) was 8.23 µg/mL (≈ 13.8 µM) and the LC50 (Artemia) was 37 ppm. The EC50 [11] was under 0.01 µg/mL.

In the case of CCCCCCCCCCCC[C@H](O)[C@@H]1CC[C@@H]([C@@H](O)CCCCC(=O)CCCCCC2CC(CC(C)=O)C(=O)O2)O1 (stereo not given in full) [ISOANNONACINONE], the EC50 (A549) is reported as 0.07 µg/mL (≈ 0.118 µM), the EC50 (HT-29) is reported as 0.009 µg/mL (≈ 0.0151 µM) and the EC50 [1] is reported as 0.5 µg/mL (≈ 0.841 µM).

With CCCCCCCCCCCC[C@H](O)[C@@H]1CC[C@@H]([C@@H](O)CCCCC(O)CCCCCC2CC(CC(C)=O)C(=O)O2)O1 (stereo not given in full) [ISOANNONACIN] the EC50 (A549) was 0.02 µg/mL (≈ 0.0335 µM), the EC50 (HT-29) was 0.002 µg/mL (≈ 0.00335 µM) and the EC50 [1] was 3 µg/mL (≈ 5.03 µM).

Compound CCCCCCC(O)CCCC(O)C1CCC(C2CCC(C(O)CCCCCCCCCCCCC3=CC(C)OC3=O)O2)O1 (stereo not given) [ISOROLLINICIN] has an EC50 [1] of 0.01 µg/mL (≈ 0.0161 µM).

Work on CCCCCCCCCC[C@@H](O)[C@@H]1CC[C@H]([C@H]2CC[C@@H]([C@@H](O)CCCCCCCCCC[C@H](O)CC3=C[C@@H](C)OC3=O)O2)O1 [ROLLINIASTATIN 1] yielded a T/C [14] of 128% and an ED50 [1] of 4.5 ×10⁻⁵ ug/ml.

CCCCCCCCC[C@@H](OC(C)=O)[C@H](OC(C)=O)[C@@H]1CC[C@@H]([C@@H]2CC[C@@H]([C@@H](CCCCCCCCCCCCC3=CC(C)OC3=O)OC(C)=O)O2)O1 (stereo not given in full) [ROLLINICIN TRIACETATE] showed an ED50 [1] of 2.6 ×10⁻⁴ ug/ml.

CCCCCCCCC[C@@H](O)[C@@H](O)[C@@H]1CC[C@@H]([C@@H]2CC[C@@H]([C@@H](O)CCCCCCCCCCCCC3=CC(C)OC3=O)O2)O1 (stereo not given in full) [ROLLINICIN] gave an ED50 [1] of 2.9 ×10⁻⁸ ug/ml.

For CCCCCC[C@H](O)CCC[C@H](O)[C@H]1CC[C@H]([C@H]2CC[C@H]([C@H](O)CCCCCCCCCCCCC3=C[C@H](C)OC3=O)O2)O1 [SQUAMOCIN], the EC50 (L1210 [15]) was 0.58 µg/mL (≈ 0.931 µM).

CCCCCCCCCCCC[C@H](O)[C@@H]1CC[C@@H]([C@@H](O)CCCCCC(=O)CCCCC2CC(CC(C)=O)C(=O)O2)O1 (stereo not given in full) [SQUAMONE] showed an LC50 (Artemia) of 2.1 ppm.

CCCCCCCCCC[C@@H](O)[C@@H]1CC[C@H]([C@H](O)CC[C@H](O)[C@@H]2CC[C@@H](CCCCCCC[C@@H](O)CC3=C[C@H](C)OC3=O)O2)O1 [SYLVATICIN] showed an EC50 (A549) of under 0.001 µg/mL, an EC50 (HT-29) of under 0.001 µg/mL and an LC50 (Artemia) of 26 ppm. It also gave an EC50 [11] of under 0.001 µg/mL.

With CN(C)[C@@H]1C(O)=C(C(N)=O)C(=O)[C@@]2(O)C(O)=C3C(=O)c4c(O)cccc4[C@@](C)(O)[C@H]3C[C@@H]12 [TETRACYCLINE] the IC50 (Plasmodium falciparum [5]) was 5.39 µg/mL (≈ 12.1 µM) and the IC50 (Plasmodium falciparum [8]) was 3.36 µg/mL (≈ 7.57 µM).

Work on CCCCCCCCCC[C@H](OC(C)=O)[C@H]1CC[C@H]([C@H]2CC[C@H]([C@H](O)CCCCCCCCCCCCC3=C[C@H](C)OC3=O)O2)O1 [UVARICIN] yielded a T/C [16] of 157%.
